Assay results as given in patent US12012574B2, “Process for removing dry surface biofilm” (Whiteley Corporation Pty. Ltd., priority 2013, dated 2024).

Columns and labels:
[1] = system: 12 day dry surface biofilm (Staphylococcus aureus ATCC 25923); test: Initial screening using TOC to assess removal of dry surface biofilm; assay type: cell-based; details: for TOC Coupons with Biofilm: biofilm coated Pyrex coupons after cleaning, Table 14 dilution; for TOC due to biofilm: biofilm coupon TOC minus blank coupon TOC; for TOC Blank coupons: fresh clean coupons exposed to test product at Table 14 dilution; for % Reduction (TOC): relative to negative control (Milli-Q water)
planktonic S. aureus = test: Disinfectant efficacy against planktonic bacteria (Example 17); assay type: cell-based, Staphylococcus aureus; details: dirty conditions (5% bovine calf serum), 5 minutes contact time
[2] = system: dry surface biofilm of S. aureus; test: Kill of organisms within dry surface biofilm (Example 18); assay type: cell-based, Staphylococcus aureus
[3] = system: 12 day dry surface biofilm; test: Protein removal from dry surface biofilm coated coupons (BCA assay); assay type: cell-based, Staphylococcus aureus
Experimental: 12 day biofilm was grown on PET coupons following the methodology of Example 8. The rods containing the biofilm coated coupons were then removed and any loosely bound biofilm washed off with Milli-Q water as described in Example 8.
One rod holding three dry surface biofilm coated coupons was then placed into 30 ml of a solution of Example 9 (17 g/litre) for 10 minutes. A second rod was placed into 30 ml of a solution of Matrix (1:50 dilution), and a third rod placed into 30 ml Milli-Q water to serve as a positive control. An additional rod, holding 3 uncoated coupons was sterilized and used as a negative control.
After 10 minutes, each rod was placed into 30 ml of 1M sodium hydroxide solution to elute off all remaining protein. Aliquots from each solution were then taken and tested for protein using a Bicinchroninic Acid (BCA) assay, using a micro BCA test kit (Sigma Aldrich).
In order to perform the BCA assay, a series of standard solutions of bovine serum albumin were prepared to produce a standard curve. […] The samples were then incubated for 60 minutes at 60° C., and the absorbance at 562 nm read using a spectrophotometer (see Table 17). […]

[4] = system: Staphylococcus aureus dry surface biofilm; details: solution containing 20,000 ppm available chlorine; cited from earlier work
[5] = system: 12 day dry surface biofilm; test: Bacterial reduction from 12 day dry surface biofilm, clean and dirty conditions (Examples 15, 16); assay type: cell-based, Staphylococcus aureus; details: for Log reduction: 5 minute contact time
Experimental: The bacterial reductions obtained from a 12 day dry surface biofilm were assessed under clean conditions using Example 9, Chlorclean tablets and a generic SDIC tablet
Each test product was dissolved in water.
Coupons coated in 12-day dry surface biofilm were produced as per Example 8. 2 ml of each test solution, followed by 2 ml of water were added to the wells in a tissue culture plate.
After a 5 minute contact time, coupons were removed from the disinfectant solutions, rinsed twice using 30 ml phosphate buffered saline for 5 seconds, and then placed into 5 ml tubes containing 2 ml of a neutralizer solution comprising 6% Tween 80 plus 1% sodium thiosulfate plus 5% bovine serum plus 10% Bovine Serum Albumin.
The tubes were sonicated for 20 minutes and then vortexed for 2 minutes. Serial 10-fold dilutions were then made and 100 ul of neat, 10^−1, 10^−2, 10^−3 and 10^−4 dilutions were plated on Horse Blood Agar plates. The plates were incubated at 37° C. overnight and then enumerated.
Control coupons, not exposed to disinfectant were similarly worked up to allow the log reductions to be calculated
The bacterial reductions obtained from a 12 day dry surface biofilm were assessed under dirty conditions using Example 9, Chlorclean tablets and a generic SDIC tablet. Each test product was dissolved in artificial hard water containing 340 ppm CaCO3 to which was added 5% Bovine Calf Serum.
Coupons coated in 12-day dry surface biofilm were produced as per Example 8. 2 ml of each test solution, followed by 2 ml of hard water to which was added 5% bovine calf serum were added to the wells in a tissue culture plate.
Control coupons, not exposed to disinfectant were similarly worked up to allow the log reductions to be calculated.

[6] = absence of biological soil, five minutes contact time
[7] = dirty conditions (presence of an organic soil), 5 minutes contact time

SMILES: [Na+].[OH-] [1M NaOH, sodium hydroxide]
- TOC Coupons with Biofilm [1]: 0.16 µg
- TOC due to biofilm [1]: -0.01 µg
- TOC Blank coupons [1]: 0.17 µg
- % Reduction (TOC) [1]: 100%

SMILES: OO [hydrogen peroxide]
- log10 reduction / activity (planktonic S. aureus): completely deactivated
- log10 reduction of biofilm viability [2, 6]: zero and no effect
- log10 reduction of biofilm viability [2, 7]: zero

SMILES: OCl [sodium hypochlorite, Sodium hypochlorite]
- Percentage protein reduction ([3]; Example 13: 10 minute contact time, calculated from positive control (Milli-Q water)): 11.50
- TOC Coupons with Biofilm [1]: 1.87 µg
- TOC due to biofilm [1]: 1.53 µg
- TOC Blank coupons [1]: 0.34 µg
- % Reduction (TOC) [1]: 79%
- survival after exposure [4]: still showing survivors

SMILES: O=c1nc([O-])n(Cl)c(=O)n1Cl.[Na+] [SDIC, sodium diisocyanurate]
- Percentage reduction ([3]; Example 14: protein, shorter contact time (not given)): 17.65
- Neutraliser control ([5]; clean conditions): 0.045
- Log reduction ([5]; clean conditions): 6.55 log
- Neutraliser control ([5]; dirty conditions): 0.018
- Log reduction ([5]; dirty conditions: hard water 340 ppm CaCO3 with 5% Bovine Calf Serum): 0.007 log
- log10 reduction of biofilm viability [2, 6]: 2.85 log10
- log10 reduction of biofilm viability ([2]; absence of biological soil, five minutes contact time, listed as SIDC): 3 log10
- log10 reduction of biofilm viability [2, 7]: 0.03 log10
